Data from US10695296B2, “Formulations, methods, kit, and dosage forms for improved stability of an active pharmaceutical ingredient” (Asana BioSciences, LLC, priority 2017, dated 2020).

Test: Dissolution, USP <711> Apparatus 2 paddle method at 50 rpm
Type: physicochemical
Conditions: 500 ml 0.01 N HCl or 50 mM phosphate buffer (pH 6.8), 0.5% sodium lauryl sulfate, paddle 50 rpm
Method: The dissolution characteristics of the spray-dried formulation prepared in Example 2 above were measured by suspending the formulation in 500 ml 0.01 N HCl or 50 mM phosphate buffer (pH 6.8), 0.5% sodium lauryl sulfate, and measuring dissolution by the USP <711> Apparatus 2 (paddle method) at 50 rpm. As a control, particles of crystalline active ingredient N-(3-(2-(6-amino-4-(trifluoromethyl)pyridin-3-yl)-4-morpholinopyrido[3,2-d]pyrimidin-6-yl)-2-fluorophenyl)-3-fluoropropane-1-sulfonamide (as prepared in Example 7 below) was suspended in either 500 ml 0.01 N HCl or 50 mM phosphate buffer (pH 6.8), 0.5% sodium lauryl sulfate and dissolution measured by the same method.

Nc1cc(C(F)(F)F)c(-c2nc(N3CCOCC3)c3nc(-c4cccc(NS(=O)(=O)CCCF)c4F)ccc3n2)cn1 [crystalline active ingredient, N-(3-(2-(6-amino-4-(trifluoromethyl)pyridin-3-yl)-4-morpholinopyrido[3,2-d]pyrimidin-6-yl)-2-fluorophenyl)-3-fluoropropane-1-sulfonamide]
dissolution state after 60 minutes: still not fully dissolved
